Data as given in the NIST ThermoML archive (doi:10.1016/j.jct.2018.12.001).
Values joined by “and” are separate entries in the source; they are usually repeats but may differ in a detail not shown here. Equal values may be shown once.

Columns and labels:
[1] = Molar enthalpy of transition or fusion; details: Crystal; DSC
[2] = Crystal; for vapor or sublimation pressure: Calculated from knudsen effusion weight loss; for Normal melting temperature: DTA

O=C1OC(=O)C(c2ccccc2)=C1c1ccccc1 [diphenylmaleic anhydride]
Details	Molar enthalpy of transition or fusion [kcal/mol]	Normal melting temperature [°C]
[1]	6.52	–
[2]	–	157.52

[2]
Details	vapor or sublimation pressure
361.07 K	0.000112 kPa and 0.000113 kPa and 0.000111 kPa
363.19 K	0.00014 kPa and 0.000138 kPa
365.3 K	0.000178 kPa and 0.000175 kPa and 0.000177 kPa
367.1 K	0.000213 kPa and 0.000215 kPa
369.26 K	0.000266 kPa and 0.000265 kPa
371.29 K	0.000335 kPa and 0.000332 kPa and 0.000331 kPa
373.08 K	0.000392 kPa and 0.000393 kPa and 0.000399 kPa
375.28 K	0.000492 kPa and 0.000483 kPa and 0.000494 kPa
377.3 K	0.00061 kPa and 0.0006 kPa and 0.00059 kPa
379.19 K	0.000733 kPa and 0.000729 kPa and 0.00074 kPa
381.16 K	0.000894 kPa and 0.000891 kPa and 0.000881 kPa
383.2 K	0.001108 kPa and 0.001106 kPa and 0.00109 kPa

c1ccc(-c2cnc(-c3ccccc3)o2)cc1 [2,5-diphenyloxazole]
Details	Molar enthalpy of transition or fusion [kcal/mol]	Normal melting temperature [°C]
[1]	5.48	–
[2]	–	71.08

[2]
Details	vapor or sublimation pressure
328.18 K	7.2e-05 kPa
329.28 K	8.2e-05 kPa and 8.1e-05 kPa
330.3 K	9.2e-05 kPa and 9.4e-05 kPa
331.19 K	0.000103 kPa and 0.000104 kPa
332.29 K	0.000118 kPa and 0.000116 kPa
333.29 K	0.000133 kPa and 0.000135 kPa
334.19 K	0.000149 kPa and 0.000148 kPa
335.17 K	0.000167 kPa and 0.000166 kPa
336.2 K	0.000189 kPa and 0.000188 kPa
337.18 K	0.000209 kPa and 0.000212 kPa and 0.000215 kPa
338.17 K	0.000241 kPa and 0.000237 kPa and 0.000238 kPa
339.29 K	0.00027 kPa and 0.000269 kPa and 0.000268 kPa
340.25 K	0.000301 kPa and 0.0003 kPa
341.3 K	0.00034 kPa and 0.000343 kPa and 0.000342 kPa
342.3 K	0.000385 kPa and 0.000382 kPa and 0.000384 kPa

O=C1C=C(c2ccccc2)C(=O)O1 [phenylmaleic anhydride]
Details	Molar enthalpy of transition or fusion [kcal/mol]	Normal melting temperature [°C]
[1]	6.2	–
[2]	–	120.20

[2]
Details	vapor or sublimation pressure
319.14 K	0.000102 kPa and 0.0001 kPa
321.22 K	0.000125 kPa and 0.000126 kPa and 0.00013 kPa
323.2 K	0.000161 kPa and 0.000164 kPa and 0.000165 kPa
325.15 K	0.000202 kPa and 0.0002 kPa and 0.000205 kPa
327.17 K	0.000252 kPa and 0.00025 kPa and 0.000255 kPa
329.3 K	0.000323 kPa and 0.000321 kPa and 0.000325 kPa
331.18 K	0.000398 kPa and 0.0004 kPa and 0.000394 kPa
333.2 K	0.0005 kPa and 0.000496 kPa
335.36 K	0.000633 kPa and 0.000631 kPa and 0.000637 kPa
337.13 K	0.000764 kPa and 0.000748 kPa and 0.000772 kPa
339.23 K	0.000919 kPa and 0.000934 kPa and 0.000926 kPa
341.31 K	0.001191 kPa and 0.001182 kPa and 0.001186 kPa
